For the assay, the system named is test plant species. The assay is described as follows: Post-emergent herbicidal activity test (greenhouse, foliar spray, visual growth reduction). It is filed as in vivo. As to conditions: post-emergence, 336 h, 140 g ai/ha. The gist of the method: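 Visual percent injury (0-100) rated 14 d after treatment, relative to nontreated and solvent-blank plants. Test plants at first or second true leaf stage received an overhead track-sprayer application at 187 L/ha. Compounds were formulated in aqueous acetone/DMSO carrier containing crop oil concentrate and X-77 surfactant.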

[1] abbreviates: ECHCG: barnyardgrass (Echinochloa crus-galli), 14 days after application, read-out: Visual Growth Reduction (%) 14 Days After Application, ECHCG.
The mark [2] stands for this setting: IPOHE: ivy-leaf morning glory (Ipomoea hederacea), 14 days after application, read-out: Visual Growth Reduction (%) 14 Days After Application, IPOHE.
The mark [3] stands for this setting: KCHSC: kochia (Bassia scoparia), 14 days after application, read-out: Visual Growth Reduction (%) 14 Days After Application, KCHSC.
Where [4] appears, read: ORYSA: rice (Oryza sativa), 14 days after application, read-out: Visual Growth Reduction (%) 14 Days After Application, ORYSA.
The mark [5] stands for this setting: SETFA: giant foxtail (Setaria faberi), 14 days after application, read-out: Visual Growth Reduction (%) 14 Days After Application, SETFA.
[6] abbreviates: SORVU: grain sorghum (Sorghum vulgare), 14 days after application, read-out: Visual Growth Reduction (%) 14 Days After Application, SORVU.
Setting [7] is: STEME: common chickweed (Stellaria media), 14 days after application, read-out: Visual Growth Reduction (%) 14 Days After Application, STEME.
[8] abbreviates: TRZAS: wheat, spring (Triticum aestivum), 14 days after application, read-out: Visual Growth Reduction (%) 14 Days After Application, TRZAS.
[9] abbreviates: blackgrass (Alopecurus myosuroides), 14 Days After Application, read-out: Visual Growth Reduction (%) ALOMY.
The mark [10] stands for this setting: canada thistle (Cirsium arvense), 14 Days After Application, read-out: Visual Growth Reduction (%) CIRAR.
The mark [11] stands for this setting: crabgrass (Digitaria sanguinalis), 14 Days After Application, read-out: Visual Growth Reduction (%) DIGSA.
Setting [12] is: lambsquarters (Chenopodium album), 14 Days After Application, read-out: Visual Growth Reduction (%) CHEAL.
Where [13] appears, read: redroot pigweed (Amaranthus retroflexus), 14 Days After Application, read-out: Visual Growth Reduction (%) AMARE.
The mark [14] stands for this setting: wild oat (Avena fatua), 14 Days After Application, read-out: Visual Growth Reduction (%) AVEFA.
[15] abbreviates: yellow nutsedge (Cyperus esculentus), 14 Days After Application, read-out: Visual Growth Reduction (%) CYPES.

For eight compounds, pest or weed control results are on record in patent US20230017045A1, “PYRIDINE AND PYRIMIDINE CARBOXYLATE HERBICIDES AND METHODS OF USE THEREOF” (Dow AgroSciences LLC, priority 2017, published 2023).

Where two headings read alike, the source gives them in different places.

As to `COC(=O)c1nc(-c2ccc(OS(=O)(=O)C(F)(F)F)cc2Cl)ccc1Cl` [F364, methyl 3-chloro-6-(2-chloro-4-(((trifluoromethyl)sulfonyl)oxy)phenyl)picolinate], the pest or weed control at 140 g/ha reads like this: under setting [1], 0 to 29%; under setting [2], 85 to 94%; under setting [3], 0 to 29%; under setting [4], 0 to 29%; under setting [5], 60 to 74%; under setting [6], 85 to 94%. In addition, the pest or weed control at 140 g/ha is, setting by setting: under setting [7], 0 to 29%; under setting [8], 0 to 29%; under setting [9], 0 to 29%; under setting [10], 60 to 74%; under setting [11], 75 to 84%; under setting [12], 75 to 84%. For the same compound, the pest or weed control at 140 g/ha was in the range of 60 to 74% under setting [13], 0 to 29% under setting [14] and 0 to 29% under setting [15].

`COC(=O)c1nc(-c2ccc(OC)cc2)c(F)cc1Cl` [F365, Methyl 3-chloro-5-fluoro-6-(4-methoxyphenyl) picolinate]: the pest or weed control at 140 g/ha lay within 0 to 29% under setting [1]; 0 to 29% under setting [2]; 0 to 29% under setting [3]; 0 to 29% under setting [4]; 0 to 29% under setting [5]; 0 to 29% under setting [6]. The pest or weed control at 140 g/ha under setting [7] is 0 to 29%; the pest or weed control at 140 g/ha under setting [8] lay in the range of 0 to 29%; the pest or weed control at 140 g/ha under setting [9] fell in the range of 0 to 29%; the pest or weed control at 140 g/ha under setting [10] fell in the range of 0 to 29%; the pest or weed control at 140 g/ha under setting [11] was 0 to 29%; the pest or weed control at 140 g/ha under setting [12] lay in the range of 0 to 29%. Besides, the pest or weed control at 140 g/ha runs as follows: under setting [13], 0 to 29%; under setting [14], 0 to 29%; under setting [15], 0 to 29%.

Consider `COc1cc(C(F)(F)F)ccc1-c1ncc(Cl)c(C(=O)O)n1` [F366, 5-Chloro-2-(2-methoxy-4-(trifluoromethyl)phenyl)pyrimidine-4-carboxylic acid], for which the pest or weed control at 140 g/ha reads like this: under setting [1], 75 to 84%; under setting [2], 95 to 100%; under setting [3], 0 to 29%; under setting [4], 0 to 29%; under setting [5], 75 to 84%; under setting [6], 75 to 84%. Besides, the pest or weed control at 140 g/ha is 0 to 29% under setting [7]; 0 to 29% under setting [8]; 0 to 29% under setting [9]; 30 to 44% under setting [10]; 75 to 84% under setting [11]; 85 to 94% under setting [12]. In addition, the pest or weed control at 140 g/ha under setting [13] fell in the range of 75 to 84%, the pest or weed control at 140 g/ha under setting [14] is 0 to 29% and the pest or weed control at 140 g/ha under setting [15] lay within 0 to 29%.

Regarding `COC(=O)c1nc(-c2cc(F)c3c(c2)OC(F)(F)O3)ccc1Cl` [F367, Methyl 3-chloro-6-(2,2,7-trifluorobenzo[d][1,3]dioxol-5-yl)picolinate], the pest or weed control at 140 g/ha under setting [1] fell in the range of 0 to 29%; the pest or weed control at 140 g/ha under setting [2] was 95 to 100%; the pest or weed control at 140 g/ha under setting [3] was 0 to 29%; the pest or weed control at 140 g/ha under setting [4] was in the range of 0 to 29%; the pest or weed control at 140 g/ha under setting [5] lay within 0 to 29%; the pest or weed control at 140 g/ha under setting [6] is 0 to 29%. In addition, the pest or weed control at 140 g/ha fell in the range of 0 to 29% under setting [7]; 0 to 29% under setting [8]; 0 to 29% under setting [9]; 0 to 29% under setting [10]; 75 to 84% under setting [11]; 0 to 29% under setting [12]. Besides, the pest or weed control at 140 g/ha under setting [13] was in the range of 0 to 29%, the pest or weed control at 140 g/ha under setting [14] lay within 0 to 29% and the pest or weed control at 140 g/ha under setting [15] lay within 0 to 29%.

In the case of `O=C(O)c1nc(-c2cc(F)c3c(c2)OC(F)(F)O3)ccc1Cl` [F368, 3-Chloro-6-(2,2,7-trifluorobenzo[d][1,3]dioxol-5-yl)picolinic acid], the pest or weed control at 140 g/ha runs as follows: under setting [1], 0 to 29%; under setting [2], 95 to 100%; under setting [3], 0 to 29%; under setting [4], 0 to 29%; under setting [5], 45 to 59%; under setting [6], 75 to 84%. The pest or weed control at 140 g/ha reads like this: under setting [7], 0 to 29%; under setting [8], 0 to 29%; under setting [9], 0 to 29%; under setting [10], 0 to 29%; under setting [11], 75 to 84%; under setting [12], 0 to 29%. In addition, the pest or weed control at 140 g/ha is 0 to 29% under setting [13], 0 to 29% under setting [14] and 0 to 29% under setting [15].

In the case of `COC(=O)c1nc(-c2ccc3c(c2OC)OC(F)(F)O3)ccc1Cl` [F369, Methyl 3-chloro-6-(2,2-difluoro-4-methoxybenzo[d][1,3]dioxol-5-yl)picolinate], the pest or weed control at 140 g/ha reads like this: under setting [1], 45 to 59%; under setting [2], 95 to 100%; under setting [3], 30 to 44%; under setting [4], 0 to 29%; under setting [5], 60 to 74%; under setting [6], 85 to 94%. In addition, the pest or weed control at 140 g/ha fell in the range of 0 to 29% under setting [7]; 60 to 74% under setting [8]; 30 to 44% under setting [9]; 85 to 94% under setting [10]; 85 to 94% under setting [11]; 30 to 44% under setting [12]. Moreover, the pest or weed control at 140 g/ha was in the range of 60 to 74% under setting [13], 30 to 44% under setting [14] and 0 to 29% under setting [15].

For `COC(=O)c1nc(-c2cc(Cl)c(C(F)(F)F)cc2C)c(F)cc1Cl` [F370, Methyl 3-chloro-6-(5-chloro-2-methyl-4-(trifluoromethyl)phenyl)-5-fluoropicolinate], the pest or weed control at 140 g/ha reads like this: under setting [1], 0 to 29%; under setting [2], 95 to 100%; under setting [3], 0 to 29%; under setting [4], 0 to 29%; under setting [5], 60 to 74%; under setting [6], 85 to 94%. Also, the pest or weed control at 140 g/ha fell in the range of 0 to 29% under setting [7]; 0 to 29% under setting [8]; 0 to 29% under setting [9]; 75 to 84% under setting [10]; 45 to 59% under setting [11]; 45 to 59% under setting [12]. For the same compound, the pest or weed control at 140 g/ha by setting is: under setting [13], 85 to 94%; under setting [14], 0 to 29%; under setting [15], 0 to 29%.

For `COC(=O)c1nc(-c2cc(Cl)c(C(F)(F)F)cc2C)ccc1Cl` [F371, Methyl 3-chloro-6-(5-chloro-2-methyl-4-(trifluoromethyl)phenyl)picolinate], the pest or weed control at 140 g/ha under setting [1] lay in the range of 0 to 29%; the pest or weed control at 140 g/ha under setting [2] fell in the range of 95 to 100%; the pest or weed control at 140 g/ha under setting [3] fell in the range of 0 to 29%; the pest or weed control at 140 g/ha under setting [4] fell in the range of 0 to 29%; the pest or weed control at 140 g/ha under setting [5] lay within 0 to 29%; the pest or weed control at 140 g/ha under setting [6] lay in the range of 75 to 84%. Besides, the pest or weed control at 140 g/ha is, setting by setting: under setting [7], 0 to 29%; under setting [8], 0 to 29%; under setting [9], 0 to 29%; under setting [10], 0 to 29%; under setting [11], 45 to 59%; under setting [12], 30 to 44%. The pest or weed control at 140 g/ha under setting [13] lay within 30 to 44%, the pest or weed control at 140 g/ha under setting [14] was in the range of 0 to 29% and the pest or weed control at 140 g/ha under setting [15] fell in the range of 0 to 29%.
